Experiments:
Experiment in all cases: KINOMEscan competition binding
Conditions in all cases: compound 10.0 µM
[1] = biological target: EPHA7 (human) (UniProt Q15375)
[2] = biological target: CSNK2A2 (human) (UniProt P19784)
[3] = biological target: CAMK1D (human) (UniProt Q8IU85)
[4] = biological target: PAK2 (human) (UniProt Q13177)
[5] = biological target: ALK (human) (UniProt Q9UM73)
[6] = biological target: PRKX (human) (UniProt P51817)
[7] = biological target: KDR (human) (UniProt P35968)
[8] = biological target: EPHB3 (human) (UniProt P54753)
[9] = biological target: MAPK11 (human) (UniProt Q15759)
[10] = biological target: MYLK2 (human) (UniProt Q9H1R3)
[11] = biological target: DYRK1B (human) (UniProt Q9Y463)
[12] = biological target: RPS6KA5 KD2 (human) (UniProt O75582)
[13] = biological target: TYRO3 (human) (UniProt Q06418)
[14] = biological target: PRKCE (human) (UniProt Q02156)
[15] = biological target: STK38L (human) (UniProt Q9Y2H1)
[16] = biological target: PRKAA1 (human) (UniProt Q13131)
[17] = biological target: PRKG1 (human) (UniProt Q13976)
Sequence of PRKG1 (human) (Q13976 whole entry, looked up): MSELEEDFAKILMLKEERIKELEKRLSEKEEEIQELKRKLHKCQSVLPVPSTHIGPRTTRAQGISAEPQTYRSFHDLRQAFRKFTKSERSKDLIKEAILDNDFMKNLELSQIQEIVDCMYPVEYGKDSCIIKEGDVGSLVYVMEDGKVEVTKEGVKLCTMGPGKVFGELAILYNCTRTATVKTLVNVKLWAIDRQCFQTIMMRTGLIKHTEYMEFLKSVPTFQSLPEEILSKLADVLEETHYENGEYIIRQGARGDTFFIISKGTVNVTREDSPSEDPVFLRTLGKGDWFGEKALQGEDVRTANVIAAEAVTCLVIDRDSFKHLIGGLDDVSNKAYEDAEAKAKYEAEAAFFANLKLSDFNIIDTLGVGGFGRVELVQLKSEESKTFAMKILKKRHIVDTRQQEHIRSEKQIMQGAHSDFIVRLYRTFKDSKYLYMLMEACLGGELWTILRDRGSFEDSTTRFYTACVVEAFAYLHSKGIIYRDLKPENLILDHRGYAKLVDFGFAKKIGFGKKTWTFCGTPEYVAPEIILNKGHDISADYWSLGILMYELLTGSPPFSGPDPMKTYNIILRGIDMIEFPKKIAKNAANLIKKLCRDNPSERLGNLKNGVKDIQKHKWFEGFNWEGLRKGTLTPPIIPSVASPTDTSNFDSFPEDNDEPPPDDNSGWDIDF

[18] = biological target: MAPK13 (human) (UniProt O15264)
[19] = biological target: HIPK1 (human) (UniProt Q86Z02)
[20] = biological target: PIP4K2B (human) (UniProt P78356)
[21] = biological target: LATS1 (human) (UniProt O95835)
Sequence of LATS1 (human) (O95835 whole entry, looked up): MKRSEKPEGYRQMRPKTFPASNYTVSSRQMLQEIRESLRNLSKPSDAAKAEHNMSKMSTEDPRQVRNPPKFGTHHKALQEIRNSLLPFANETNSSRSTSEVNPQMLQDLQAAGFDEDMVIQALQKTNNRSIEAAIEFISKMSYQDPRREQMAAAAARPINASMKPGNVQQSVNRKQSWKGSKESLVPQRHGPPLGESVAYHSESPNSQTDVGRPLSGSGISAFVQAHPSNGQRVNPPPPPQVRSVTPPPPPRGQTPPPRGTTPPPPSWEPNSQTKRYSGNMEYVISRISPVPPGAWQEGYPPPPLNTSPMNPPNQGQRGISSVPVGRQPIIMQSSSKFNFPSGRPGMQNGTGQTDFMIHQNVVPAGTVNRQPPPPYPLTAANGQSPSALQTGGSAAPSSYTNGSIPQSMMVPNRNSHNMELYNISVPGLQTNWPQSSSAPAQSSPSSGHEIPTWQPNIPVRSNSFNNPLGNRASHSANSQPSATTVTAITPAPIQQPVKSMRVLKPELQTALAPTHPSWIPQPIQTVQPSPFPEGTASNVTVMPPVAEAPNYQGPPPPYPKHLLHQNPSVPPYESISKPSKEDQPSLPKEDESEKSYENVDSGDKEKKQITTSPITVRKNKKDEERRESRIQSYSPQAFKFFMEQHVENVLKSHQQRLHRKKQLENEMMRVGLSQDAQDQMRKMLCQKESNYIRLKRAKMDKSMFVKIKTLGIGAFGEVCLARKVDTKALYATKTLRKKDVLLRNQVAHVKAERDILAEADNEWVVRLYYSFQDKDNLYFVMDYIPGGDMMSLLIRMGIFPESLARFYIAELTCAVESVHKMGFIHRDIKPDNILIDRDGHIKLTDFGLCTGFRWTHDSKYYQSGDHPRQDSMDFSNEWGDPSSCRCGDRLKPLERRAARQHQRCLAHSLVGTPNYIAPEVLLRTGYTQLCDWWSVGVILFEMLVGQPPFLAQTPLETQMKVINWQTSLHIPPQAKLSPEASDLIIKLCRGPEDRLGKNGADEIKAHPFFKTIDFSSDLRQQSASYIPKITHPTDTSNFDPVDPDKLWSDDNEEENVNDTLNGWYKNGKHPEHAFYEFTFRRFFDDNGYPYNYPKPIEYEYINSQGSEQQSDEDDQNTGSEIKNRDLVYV

[22] = biological target: FLT3 (human) (UniProt P36888)
[23] = biological target: STK17B (human) (UniProt O94768)
[24] = biological target: MARK2 (human) (UniProt Q7KZI7)
Sequence of MARK2 (human) (Q7KZI7 whole entry, looked up): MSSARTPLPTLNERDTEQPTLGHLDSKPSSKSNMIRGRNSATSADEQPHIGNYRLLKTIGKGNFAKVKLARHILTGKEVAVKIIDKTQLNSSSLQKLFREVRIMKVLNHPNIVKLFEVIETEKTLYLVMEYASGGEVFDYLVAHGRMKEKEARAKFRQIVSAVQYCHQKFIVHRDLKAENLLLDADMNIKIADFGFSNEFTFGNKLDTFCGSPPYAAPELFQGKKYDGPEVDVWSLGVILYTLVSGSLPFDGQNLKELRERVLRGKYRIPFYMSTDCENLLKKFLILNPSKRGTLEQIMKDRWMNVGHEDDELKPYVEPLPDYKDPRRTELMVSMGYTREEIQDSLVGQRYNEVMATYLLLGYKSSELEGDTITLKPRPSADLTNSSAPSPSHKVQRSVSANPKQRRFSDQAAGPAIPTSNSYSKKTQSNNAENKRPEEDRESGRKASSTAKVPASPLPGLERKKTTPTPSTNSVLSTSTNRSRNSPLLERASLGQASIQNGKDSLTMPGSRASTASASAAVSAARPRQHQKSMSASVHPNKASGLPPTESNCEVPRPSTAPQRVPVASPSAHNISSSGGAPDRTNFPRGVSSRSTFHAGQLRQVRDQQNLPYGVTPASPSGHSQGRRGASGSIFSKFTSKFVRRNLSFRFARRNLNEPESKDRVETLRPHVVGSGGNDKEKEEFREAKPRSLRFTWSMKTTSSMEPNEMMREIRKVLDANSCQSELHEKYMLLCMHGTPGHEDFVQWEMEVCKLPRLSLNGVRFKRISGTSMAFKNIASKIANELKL

[25] = biological target: TLK2 (human) (UniProt Q86UE8)
Sequence of TLK2 (human) (Q86UE8 whole entry, looked up): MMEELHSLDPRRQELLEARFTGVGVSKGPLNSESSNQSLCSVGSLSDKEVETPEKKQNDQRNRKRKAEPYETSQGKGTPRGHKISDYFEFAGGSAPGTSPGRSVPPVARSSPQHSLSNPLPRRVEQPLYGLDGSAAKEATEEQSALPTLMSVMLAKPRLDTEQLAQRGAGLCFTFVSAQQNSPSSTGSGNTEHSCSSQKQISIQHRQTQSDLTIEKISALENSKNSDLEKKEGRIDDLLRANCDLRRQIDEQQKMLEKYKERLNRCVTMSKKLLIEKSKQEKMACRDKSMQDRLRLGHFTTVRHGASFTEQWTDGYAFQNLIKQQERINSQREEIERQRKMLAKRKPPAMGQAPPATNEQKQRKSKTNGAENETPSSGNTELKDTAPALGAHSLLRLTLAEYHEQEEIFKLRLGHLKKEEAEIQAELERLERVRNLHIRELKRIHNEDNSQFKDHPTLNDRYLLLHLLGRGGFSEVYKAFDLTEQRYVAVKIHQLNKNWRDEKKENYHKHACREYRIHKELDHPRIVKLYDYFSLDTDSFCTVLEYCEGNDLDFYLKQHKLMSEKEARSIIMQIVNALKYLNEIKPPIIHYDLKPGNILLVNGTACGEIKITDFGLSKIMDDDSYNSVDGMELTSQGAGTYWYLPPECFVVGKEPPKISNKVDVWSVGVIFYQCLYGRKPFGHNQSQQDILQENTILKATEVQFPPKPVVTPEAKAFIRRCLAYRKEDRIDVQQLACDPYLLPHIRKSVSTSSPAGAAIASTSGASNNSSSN

[26] = biological target: MKNK1 (human) (UniProt Q9BUB5)
[27] = biological target: PTK6 (human) (UniProt Q13882)
Sequence of PTK6 (human) (Q13882 whole entry, looked up): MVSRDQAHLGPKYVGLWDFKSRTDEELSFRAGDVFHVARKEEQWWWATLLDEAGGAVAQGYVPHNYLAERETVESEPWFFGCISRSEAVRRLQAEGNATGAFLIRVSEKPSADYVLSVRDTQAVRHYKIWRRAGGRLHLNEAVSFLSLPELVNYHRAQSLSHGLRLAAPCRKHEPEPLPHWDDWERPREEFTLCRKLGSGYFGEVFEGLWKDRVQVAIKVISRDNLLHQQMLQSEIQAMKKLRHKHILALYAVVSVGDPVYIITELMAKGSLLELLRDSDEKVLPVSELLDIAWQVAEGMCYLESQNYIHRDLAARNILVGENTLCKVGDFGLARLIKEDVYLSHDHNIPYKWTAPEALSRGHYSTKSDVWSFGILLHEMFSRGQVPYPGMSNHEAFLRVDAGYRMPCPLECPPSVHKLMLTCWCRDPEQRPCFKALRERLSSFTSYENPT

[28] = biological target: NEK1 (human) (UniProt Q96PY6)
[29] = biological target: ANKK1 (human) (UniProt Q8NFD2)
[30] = biological target: ROS1 (human) (UniProt P08922)
[31] = biological target: PLK1 (human) (UniProt P53350)
Sequence of PLK1 (human) (P53350 whole entry, looked up): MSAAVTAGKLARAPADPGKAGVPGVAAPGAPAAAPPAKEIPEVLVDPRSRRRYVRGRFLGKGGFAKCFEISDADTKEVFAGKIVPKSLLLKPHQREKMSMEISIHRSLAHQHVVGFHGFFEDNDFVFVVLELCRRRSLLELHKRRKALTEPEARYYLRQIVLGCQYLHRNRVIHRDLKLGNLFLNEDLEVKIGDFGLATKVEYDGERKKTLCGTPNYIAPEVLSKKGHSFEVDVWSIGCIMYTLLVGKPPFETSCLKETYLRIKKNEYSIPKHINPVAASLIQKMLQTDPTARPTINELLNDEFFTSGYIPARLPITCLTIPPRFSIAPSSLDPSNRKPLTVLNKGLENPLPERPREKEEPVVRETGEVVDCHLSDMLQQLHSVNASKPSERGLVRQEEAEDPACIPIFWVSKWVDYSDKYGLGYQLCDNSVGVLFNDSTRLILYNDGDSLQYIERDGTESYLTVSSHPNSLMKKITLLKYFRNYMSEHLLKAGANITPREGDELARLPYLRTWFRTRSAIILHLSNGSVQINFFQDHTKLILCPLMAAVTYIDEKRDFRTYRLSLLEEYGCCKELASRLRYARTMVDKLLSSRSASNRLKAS

[32] = biological target: MAP4K5 (human) (UniProt Q9Y4K4)
[33] = biological target: RPS6KA5 KD1 (human) (UniProt O75582)
[34] = biological target: DCLK2 (human) (UniProt Q8N568)
[35] = biological target: RIOK2 (human) (UniProt Q9BVS4)
[36] = biological target: TAOK1 (human) (UniProt Q7L7X3)
[37] = biological target: CLK4 (human) (UniProt Q9HAZ1)
[38] = tested on: FLT3 (human), P36888 [ITD]
[39] = tested on: FLT3 (human), P36888 [N841I]
[40] = biological target: AURKB (human) (UniProt Q96GD4)

Sequence of PRKX (human) (P51817 whole entry, looked up): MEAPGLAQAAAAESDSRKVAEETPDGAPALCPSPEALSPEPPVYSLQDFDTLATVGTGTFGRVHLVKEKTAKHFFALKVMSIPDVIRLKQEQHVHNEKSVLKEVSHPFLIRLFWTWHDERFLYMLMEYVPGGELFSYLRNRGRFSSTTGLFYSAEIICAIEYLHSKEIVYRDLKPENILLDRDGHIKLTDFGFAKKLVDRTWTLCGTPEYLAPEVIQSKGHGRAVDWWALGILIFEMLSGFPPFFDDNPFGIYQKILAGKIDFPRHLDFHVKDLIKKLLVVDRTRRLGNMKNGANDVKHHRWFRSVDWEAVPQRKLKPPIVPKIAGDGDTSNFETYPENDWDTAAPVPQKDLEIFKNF

SMILES: CCCS(=O)(=O)Nc1ccc(F)c(C(=O)c2c[nH]c3ncc(-c4ccc(Cl)cc4)cc23)c1F
- kinase still bound, per cent of control [1]: 100%
- kinase still bound, per cent of control [2]: 100%
- kinase still bound, per cent of control [3]: 100%
- kinase still bound, per cent of control [4]: 80%
- kinase still bound, per cent of control [5]: 62%
- kinase still bound, per cent of control [6]: 100%
- kinase still bound, per cent of control [7]: 31%
- kinase still bound, per cent of control [8]: 100%
- kinase still bound, per cent of control [9]: 29%
- kinase still bound, per cent of control [10]: 18%
- kinase still bound, per cent of control [11]: 100%
- kinase still bound, per cent of control [12]: 100%
- kinase still bound, per cent of control [13]: 100%
- kinase still bound, per cent of control [14]: 87%
- kinase still bound, per cent of control [15]: 100%
- kinase still bound, per cent of control [16]: 89%
- kinase still bound, per cent of control [17]: 100%
- kinase still bound, per cent of control [18]: 100%
- kinase still bound, per cent of control [19]: 90%
- kinase still bound, per cent of control [20]: 100%
- kinase still bound, per cent of control [21]: 100%
- kinase still bound, per cent of control [22]: 2.4%
- kinase still bound, per cent of control [23]: 88%
- kinase still bound, per cent of control [24]: 69%
- kinase still bound, per cent of control [25]: 94%
- kinase still bound, per cent of control [26]: 70%
- kinase still bound, per cent of control [27]: 0.75%
- kinase still bound, per cent of control [28]: 100%
- kinase still bound, per cent of control [29]: 91%
- kinase still bound, per cent of control [30]: 100%
- kinase still bound, per cent of control [31]: 100%
- kinase still bound, per cent of control [32]: 6.4%
- kinase still bound, per cent of control [33]: 98%
- kinase still bound, per cent of control [34]: 100%
- kinase still bound, per cent of control [35]: 100%
- kinase still bound, per cent of control [36]: 72%
- kinase still bound, per cent of control [37]: 100%

SMILES: Cc1cc([C@@H](C)Nc2ccccc2C(=O)O)c2nc(N3CCOCC3)cc(=O)n2c1
- kinase still bound, per cent of control [1]: 89%
- kinase still bound, per cent of control [2]: 100%
- kinase still bound, per cent of control [3]: 100%
- kinase still bound, per cent of control [4]: 100%
- kinase still bound, per cent of control [38]: 53%
- kinase still bound, per cent of control [5]: 100%
- kinase still bound, per cent of control [6]: 91%
- kinase still bound, per cent of control [7]: 100%
- kinase still bound, per cent of control [8]: 100%
- kinase still bound, per cent of control [9]: 91%
- kinase still bound, per cent of control [10]: 100%
- kinase still bound, per cent of control [39]: 44%
- kinase still bound, per cent of control [12]: 91%
- kinase still bound, per cent of control [13]: 100%
- kinase still bound, per cent of control [14]: 100%
- kinase still bound, per cent of control [15]: 94%
- kinase still bound, per cent of control [16]: 100%
- kinase still bound, per cent of control [17]: 100%
- kinase still bound, per cent of control [18]: 87%
- kinase still bound, per cent of control [19]: 100%
- kinase still bound, per cent of control [20]: 100%
- kinase still bound, per cent of control [21]: 100%
- kinase still bound, per cent of control [22]: 13%
- kinase still bound, per cent of control [23]: 100%
- kinase still bound, per cent of control [24]: 90%
- kinase still bound, per cent of control [25]: 88%
- kinase still bound, per cent of control [26]: 92%
- kinase still bound, per cent of control [27]: 75%
- kinase still bound, per cent of control [28]: 85%
- kinase still bound, per cent of control [29]: 100%
- kinase still bound, per cent of control [30]: 100%
- kinase still bound, per cent of control [31]: 100%
- kinase still bound, per cent of control [32]: 96%
- kinase still bound, per cent of control [40]: 96%
- kinase still bound, per cent of control [33]: 81%
- kinase still bound, per cent of control [34]: 100%
- kinase still bound, per cent of control [35]: 54%
- kinase still bound, per cent of control [36]: 59%
- kinase still bound, per cent of control [37]: 68%

SMILES: Cc1ccc2nc(NCCN)c3ncc(C)n3c2c1
- kinase still bound, per cent of control [1]: 100%
- kinase still bound, per cent of control [2]: 86%
- kinase still bound, per cent of control [3]: 69%
- kinase still bound, per cent of control [4]: 94%
- kinase still bound, per cent of control [5]: 100%
- kinase still bound, per cent of control [6]: 86%
- kinase still bound, per cent of control [7]: 100%
- kinase still bound, per cent of control [8]: 100%
- kinase still bound, per cent of control [9]: 87%
- kinase still bound, per cent of control [10]: 71%
- kinase still bound, per cent of control [39]: 41%
- kinase still bound, per cent of control [11]: 85%
- kinase still bound, per cent of control [12]: 85%
- kinase still bound, per cent of control [13]: 100%
- kinase still bound, per cent of control [14]: 100%
- kinase still bound, per cent of control [15]: 100%
- kinase still bound, per cent of control [16]: 82%
- kinase still bound, per cent of control [17]: 100%
- kinase still bound, per cent of control [18]: 100%
- kinase still bound, per cent of control [19]: 21%
- kinase still bound, per cent of control [20]: 100%
- kinase still bound, per cent of control [21]: 100%
- kinase still bound, per cent of control [22]: 100%
- kinase still bound, per cent of control [23]: 100%
- kinase still bound, per cent of control [24]: 100%
- kinase still bound, per cent of control [25]: 88%
- kinase still bound, per cent of control [26]: 100%
- kinase still bound, per cent of control [27]: 99%
- kinase still bound, per cent of control [28]: 78%
- kinase still bound, per cent of control [29]: 99%
- kinase still bound, per cent of control [30]: 77%
- kinase still bound, per cent of control [31]: 100%
- kinase still bound, per cent of control [32]: 96%
- kinase still bound, per cent of control [40]: 67%
- kinase still bound, per cent of control [33]: 100%
- kinase still bound, per cent of control [34]: 100%
- kinase still bound, per cent of control [35]: 79%
- kinase still bound, per cent of control [36]: 66%
- kinase still bound, per cent of control [37]: 53%

Source: the kinase profiling compilation of Christmann-Franck et al. (2016)
